From PMC7096397, “Improving the drug-likeness of inspiring natural products - evaluation of the antiparasitic activity against Trypanosoma cruzi through semi-synthetic and simplified analogues of licarin A” (Scientific Reports, 2020)
“Also recorded” adds a separate entry of the source. Read-outs that look alike come from different tables or passages of the source.

Assays:
T. cruzi trypomastigotes [1] = test: Plasma membrane permeability, Sytox Green probe; format: cell-based, Trypanosoma cruzi; conditions: at IC50, up to 120 min, vs untreated parasites
Protocol: The action of compounds 1d, 1e, 3d and 4a in the cell membrane permeability were evaluated in T. cruzi trypomastigotes (2 × 10^6/well) seeded in 96-well black polystyrene microplates. Parasites were washed and incubated in the dark with 1 μM SYTOX Green probe (Molecular Probes) in HANKS’ balanced salts solution (HBSS; Sigma-Aldrich) supplemented with 10 mM D-Glucose (HBSS + Glu) in 96-well black polystyrene microplates[43],[44]. […] The maximum permeabilization was obtained with the addiction of 0.5% Triton X-100. Fluorescence intensities were determined using a fluorimetric microplate reader (FilterMax F5 Multi-Mode Microplate Reader-Molecular Devices) with excitation and emission wavelengths of 485 and 520 nm, respectively. The following internal controls were used in the evaluation: i) the background fluorescence of the compound at the respective wavelengths, ii) the possible interference of DMSO.

[2] = test system: T. cruzi intracellular amastigotes; test: Anti-amastigote assay in infected peritoneal macrophages (infection index); format: cell-based, Trypanosoma cruzi; conditions: Trypanosoma cruzi, Peritoneal macrophage, in Mus musculus, 48 h, read-out: IC50 Ama
Protocol: (§1) The cells and parasites were kept at 37 °C in a humidified atmosphere containing 5% CO2.
The cells were plated on a 16-well chamber slide – NUNC (Thermo Fisher Scientific) at 1 × 10^5 cells/well and incubated for 24 h at 37 °C in a 5% CO2 humidified incubator. […] Tested compounds were subsequently incubated with infected macrophages for 48 h at 37 °C (5% CO2 humidified incubator) in different nontoxic concentrations. Benznidazole was used as standard drug. At the end of the assay, slides were fixed with MeOH and stained with Giemsa, counted under a light microscope (EVOS M5000, Thermo, USA) and IC50 values were determined by the infection index.
(§2) IC50 and CC50 values were calculated using a sigmoid dose-response curves in Graph–Pad Prism 5.0 software (GraphPad Software - San Diego, CA, USA). For the mechanism of action studies one-way ANOVA (Turkey’s Multiple Comparison test) was used for significance (p < 0.05). The assays were repeated at least twice and the samples were tested in duplicate.

[3] = Cytotoxicity against mammalian cells (MTT); format: cell-based, Murine; conditions: mouse, NCTC clone L929 cells
Protocol: Rhesus monkey kidney cells (LLC-MK2-ATCC CCL 7) were used for the maintenance of trypomastigotes of T. cruzi (Y strain) using RPMI-1640 medium supplemented with 2% fetal bovine serum (FBS). The cells and parasites were kept at 37 °C in a humidified atmosphere containing 5% CO2. Peritoneal macrophages, used in the experiments of anti-amastigote assay, were obtained by washing the peritoneal cavity of BALB/c mice, with RPMI-1640 medium supplemented with 10% FBS and kept at 37 °C in a 5% CO2 humidified incubator. Murine conjunctive cells (NCTC clone 929, ATCC) and LLC-MK2 were kept in RPMI-1640 supplemented with 10% FBS at the same conditions described above.
NCTC cells-clone L929 (6 × 10^4 cells/well) were seeded and incubated with tested compounds (200–1.56 µM) for 48 h at 37 °C in a 5% CO2 humidified incubator. Cytotoxic concentration (CC50) was determined by MTT assay. Optical density was determined in FilterMax F5 (Molecular Devices) at 570 nm. Selectivity Index (SI) was determined using the following ratio: CC50 against NCTC cells/IC50 against parasites.
as §2

T. cruzi trypomastigotes [4] = test: ATP generation (luciferin/luciferase); format: cell-based, Trypanosoma cruzi; conditions: at IC50, 2 h of incubation
Protocol: Untreated parasites and treated with the mitochondrial uncoupler CCCP (carbonyl cyanide m-chlorophenylhydrazone - Sigma) at 100 µM, were used as positive and negative controls, respectively. […] Luminescence intensity was measured using a luminometer (FilterMax F5 Multi-Mode, Molecular Devices) and the amount of ATP was calculated from an ATP standard curve.

T. cruzi trypomastigotes [5] = test: Mitochondrial membrane potential, JC-1 flow cytometry; format: cell-based, Trypanosoma cruzi; conditions: at IC50, 2 h
Protocol: The ΔΨm were analyzed by flow cytometry (Attune NxT flow cytometer - ThermoFisher) with the probe 5,5′,6,6′-tetrachloro-1,1′,3,3′-tetraethylbenzimidazole carbocyanide iodide (JC-1, ThermoFisher). The ratio between red/green fluorescence intensities (BL-2/BL-1; 590 nm/530 nm) were calculated[45],[46]. […] The parasites were incubated in the dark for 10 min at 37 °C and washed in HBSS + Glu to eliminate the non-internalized dye. As internal controls of the assay were used: (i) non-treated cells and (ii) trypomastigotes treated with 100 μM CCCP.

T. cruzi trypomastigotes [6] = test: Reactive oxygen species (ROS) generation, H2DCFDA probe; format: cell-based, Trypanosoma cruzi; conditions: for ROS generation: at IC50, 1 h of treatment; for ROS levels: at IC50, 2 h of treatment
Protocol: After, H2DCFDA probe (Molecular Probes) was added (5 µM) and incubated by 15 min[44]. The fluorescence intensity was measure using a fluorimetric microplate reader (FilterMax F5 Multi-Mode, Molecular Devices) with excitation and emission wavelengths of 485 and 520 nm, respectively. Azide (10 mM) was used as positive control and untreated parasites were used as negative control.

[7] = PAMPA intestinal model (GIT); format: in vitro ADME
Protocol: Intestinal permeability of tested compounds was estimated applying the PAMPA model previously developed and validated. Briefly, stock solutions were prepared in dimethyl sulfoxide (DMSO) at the concentrations of 10 mM and then diluted with Tris buffer to give the final concentration donor solution at 300 µM and 5% DMSO. The assay procedure was initiated by filling each well of the microtiter plate (MultiScreen, catalogue no. MATRNPS50, Millipore Corporation, Bedford, MA, USA) with 300 μL of each donor drug solution. Carefully, and avoiding the pipette tip contact with the filter, the hydrophobic filter (0.45 μm) of each acceptor well of the 96-well microfilter plate (MultiScreen-IP, catalogue no. MAIPNTR10, Millipore Corporation, Bedford, MA, USA) was adsorbed with 6 μL of the artificial lipid solution which was composed of 2% of L-α-phosphatidylcholine from soybean dissolved, by sonication, in n-dodecane. Immediately after this application, 150 μL of Tris buffer containing 5% DMSO was added to the receiving well. The receiving well was mounted on the donor plate, keeping the underside of the membrane in contact with the donor solution. The assembled donor–acceptor plates were incubated under constant stirring (3 g) at 25 °C for approximately 16 h. Subsequently, the quantity of each compound presented at the receptor solution (150 μL) was determined by UV/VIS spectrophotometrically.

PAMPA-BBB model = format: in vitro ADME
Protocol: The methodology herein applied was similar to that described in the previous section, however with the purpose of assessing the permeability of the compounds through the blood brain barrier (BBB). Thus, stock solutions (10 mM) of each test compound were prepared in DMSO and diluted with phosphate buffered saline (PBS) at pH 7.4. The final concentration of donor solutions was 300 μM and DMSO of 5%. Artificial membrane lipid solutions were prepared daily by dissolving, in n-dodecane, the porcine brain lipid extracted as described[40] at the final concentration of 2% (m/v). PAMPA procedure was similar to that described in the previous section although, in PAMPA-BBB, the donor and acceptor solutions were prepared using phosphate buffer saline (PBS) at pH 7.4 and the Papp was obtained through the equation previously reported.

[8] = test system: T. cruzi (Y strain) trypomastigotes; test: Anti-trypomastigote assay (resazurin viability); format: cell-based, Trypanosoma cruzi; conditions: Trypanosoma cruzi, read-out: IC50 trypo
Protocol: as §1
Benznidazole was used as the standard drug. The optical density was determined in FilterMax F5 (Molecular Devices) at 570 nm[38].
as §2

[9] = PAMPA intestinal model (GIT); format: in vitro ADME; conditions: read-out: plasma protein binding percentage
[10] = intracellular amastigotes in BALB/c peritoneal macrophages
[11] = T. cruzi trypomastigotes, 24 h incubation, resazurin
[12] = PAMPA intestinal model, 300 µM donor, Tris buffer, 25 °C, 16 h, read-out: Papp GIT
[13] = PAMPA-BBB model, 300 µM donor, PBS pH 7.4, read-out: Papp BBB

Row | Structure (SMILES) | Sytox Green fluorescence levels (plasma membrane permeability) (T. cruzi trypomastigotes [1]) | IC50 [2, 10] [µM] | CC50 at 48 h [3] [µM] | ATP levels (T. cruzi trypomastigotes [4]) | mitochondrial membrane potential (T. cruzi trypomastigotes [5]) | ROS generation (T. cruzi trypomastigotes [6]) | ROS levels (T. cruzi trypomastigotes [6]) | Papp at 16 h, 300 µM ([7]; PAMPA) [×10⁻⁶ cm/s] | Papp at 16 h, 300 µM (PAMPA-BBB model; PAMPA, pH 7.4) [×10⁻⁶ cm/s] | IC50 [8, 11] [µM] | IC50 [2] [µM] | Papp at 16 h, 300 µM [7, 12] [×10⁻⁶ cm/s] | fraction unbound at 16 h, 300 µM [9] | Papp at 16 h, 300 µM (PAMPA-BBB model; [13]) [×10⁻⁶ cm/s] | IC50 ([8]; 24 h) [µM]
1 | C=CCc1cc([C@H]2Oc3c(OC)cc(/C=C/C)cc3[C@@H]2C)cc(OC)c1O [1d, 2-allyl-6-methoxy-4-[(2S,3 S)-7-methoxy-3-methyl-5-[(E)-prop-1-enyl]-2,3-dihydrobenzofuran-2-yl]phenol] | no changes in the fluorescence levels | > 100 | 45.5 ± 16.7 | increased ATP production | induced hyperpolarization of mitochondrial membrane potential; also recorded: mitochondrial hyperpolarization, but with no statistical significance | increased the reactive oxygen species (ROS) levels; also recorded: increased ROS generation | drop of the levels | 0.38 | 0.28 | 5 ± 0.8 | – | – | – | – | –
2 | C/C=C/c1cc(OC)c2c(c1)[C@H](C)[C@@H](c1cc(OC)c3oc(C)cc3c1)O2 [1e, 7-methoxy-5-[(2 S,3 S)-7-methoxy-3-methyl-5-[(E)-prop-1-enyl]-2,3-dihydrobenzofuran-2-yl]-2-methyl-benzofuran] | exception of 1e after 120 min | > 100 | > 200 | no significant alterations in ATP levels | induced hyperpolarization of mitochondrial membrane potential; also recorded: mitochondrial hyperpolarization, but with no statistical significance | increased the reactive oxygen species (ROS) levels; also recorded: increased ROS generation | drop of the levels | 0.55 | 0.23 | 10.5 ± 5.7 | – | – | – | – | –
3 | COc1ccc(C=O)cc1OC [2a, 3,4-dimethoxybenzaldehyde] | – | – | > 200 | – | – | – | – | – | – | – | > 100 | 20.7 | < 0.1 | 7 | > 100
4 | COc1cc(CO)ccc1OC(C)=O [3b, [4-(hydroxymethyl)-2-methoxy-phenyl] acetate] | no changes in the fluorescence levels | > 100 | 45.8 ± 14.9 | increased ATP production | mitochondrial hyperpolarization, but with no statistical significance | increased ROS generation | drop of the levels | 5.07 | 3.67 | 5.1 ± 0.7 | – | – | – | – | –
5 | C/C=C/c1ccc(OC)c(OC)c1 [4a, 1,2-dimethoxy-4-[(E)-prop-1-enyl]benzene] | no changes in the fluorescence levels | – | > 200 | increased ATP production | – | increased the reactive oxygen species (ROS) levels; also recorded: increased ROS generation | drop of the levels | – | – | – | > 100 | 15.9 | < 0.1 | 1.29 | 8.8 ± 2
6 | C=CCc1ccc(O)c(OC)c1 [compound 5, eugenol] | – | – | > 200 | – | – | – | – | – | – | – | > 100 | 14.4 | < 0.1 | 3.98 | > 100
